Experimental data from patent US9540640B2, “Compositions and methods for inhibiting hypdxia induced damage” (Health Research, Inc., priority 2012, dated 2017).

Tests used:
HK-2 cells [1] = test: Individual shRNA screening: survival of transduced HK-2 cells under hypoxia (Protocol 2); format: cell-based, human; conditions: viable shRNA-transduced HK-2 cells after hypoxia (0.2% oxygen 48 hours, low glucose DMEM) vs control HK-2 cells; 2-6 independent experiments; methylene blue
Description: shRNA of the invention can be expressed from any suitable vector such as a recombinant viral vector either as two separate, complementary RNA molecules, or as a single RNA molecule with two complementary regions. In this regard, any viral vector capable of accepting the coding sequences for the shRNA molecule(s) to be expressed can be used. Examples of suitable vectors include but are not limited to vectors derived from adenovirus, adeno-associated virus, retroviruses (e.g, lentiviruses, Rhabdoviruses, murine leukemia virus), herpes virus, and the like. A preferred virus is a lentivirus. The tropism of the viral vectors can also be modified by pseudotyping the vectors with envelope proteins or other surface antigens from other viruses. As an alternative to expression of shRNA in cells from a recombinant vector, chemically stabilized shRNA or siRNAs may also be used administered as the agent in the method of the invention. Vectors for expressing shRNA which in turn produces siRNA once introduced into a cell are commercially available. Further, shRNAs which facilitate produce of siRNA targeted to virtually every known human gene are also known and are commercially available. In embodiments specific shRNAs are those which comprise polynucleotide sequences presented in Table 2, wherein those sequences are targeted to the genes as indicated. In particular, Table 2 provides the sequence of segments of shRNAs that target the HRGs of the present disclosure. […] “RPCI” under source designates the “shRNA Resource of Roswell Park Cancer Institute” which distributes shRNAs from commercial vendors. The catalog # column signifies a reference under which each of the shRNAs are made available to the public. The SEQ ID # column refers to the sequence listing that forms a part of this disclosure. The polynucleotide sequences provided in Table 2 are cDNA sequences that recognize the target gene mRNA via shRNA. It will be recognized by those skilled in the art that the shRNAs used in the Examples presented herein have the identical sequences as listed in Table 2, except for substitution of each thymine with uracil. It will be also recognize that each of the shRNAs as used in practice has additional sequences that are typical of shRNA constructs, but that the sequences listed in Table 2 are the ones that are antisense to the mRNA of the indicated HRGs.
Protocol 2: Individual shRNA screening.
Cell Preparation: Lentiviral vectors containing various shRNAs of interest were obtained from commercial sources, and packaged in 293T cells. HK-2 cells were then transduced with these expression constructs and selected for the presence of a vector-encoded antibiotic resistance marker.
Hypoxia Protocol: Day 0: HK-2 cells containing individual shRNAs were seeded in triplicate on two 96-well plates, 3×10^4 cells/well. Negative controls included uninfected cells or cells infected with a corresponding empty vector. Day 1: Keratinocyte medium was removed from the plates and fresh DMEM containing low glucose was added. One of the plates was then transported to a chamber that contained 0.2% oxygen for 48 hours, while the other remained at normoxia for the same period of time. Day 3: The cells were rescued from hypoxia and the plates were immediate fixed and stained with methylene blue to assess survival. Results were then graphed as the percent of stain of the corresponding cells incubated in normoxic conditions minus the background (non-specific dye absorption by empty wells).

kidneys = test: Mouse model of acute renal ischemia, plasma markers of kidney damage; format: in vivo; conditions: i.p. 30 mg/kg or 90 mg/kg 30 minutes before 25 min ischemia of both kidneys, 24 hrs after reperfusion, FIG. 8
Description: In particular, the protective effects of chemically inhibiting TACR1 were examined in a mouse model of acute renal ischemia using the following protocol: i. 30 minutes before the surgery, mice received an i.p. injection of a TACR1 inhibitor (L-733,060) at either 30 mg/kg or 90 mg/kg, or of the respective vehicle (saline). ii. Under general anesthesia with Ketamin/Rompun, the mice were subjected to 25 min of ischemic of both kidneys. Each of the 2 kidneys was exposed through a flank incision. The kidney pedicle was clamped with atraumatic clamps for 25 min. iii. Mice were kept in an incubator at constant temperature 36 C during the 25 min of ischemia. After 25 min of ischemia, clamps were removed and wounds were closed. iv. 24 hrs after reperfusion blood samples were taken and mice were sacrificed. v. The levels of biochemical markers of kidney damage were measured in the plasma of the collected blood. Specifically, creatinine, neutrophil gelatinase-associated lipocalin (NGAL), osteopontin and urea (blood urea nitrogen) were measured.

hRPTEC cells = test: TACR1 inhibitor: survival of hRPTEC cells under hypoxia; format: cell-based; conditions: 0.2% oxygen 48 hours, low glucose DMEM, inhibitor added 1 hour before; methylene blue; FIG. 7
Description: The following protocol was used: Day 0: hRPTEC were seeded on two 96-well plates, 2×10^4 cells/well. Day 1: Keratinocyte medium was removed from the plates and fresh DMEM containing low glucose and the indicated concentration of the TACR1 inhibitor (L-733,060) was added. Each concentration was examined in quadruplicate fashion. The two plates were incubated in the presence of the inhibitor at normal growth conditions for 1 hour, at which time one of the plates was transported to a chamber that contained 0.2% oxygen for 48 hours, while the other remained at normoxia for the same period of time. Day 3: The cells were rescued from hypoxia and the plates were immediate fixed and stained with methylene blue to assess survival. The percent of stain of the corresponding cells incubated in normoxic conditions minus the background (non-specific dye absorption by empty wells) was calculated as a measure of cell resistance to the hypoxia. The results were plotted as a fold increase in resistance over that of cells not treated with L-733,060.

HKC8 cells = test: TACR1 inhibitor: protection of HKC8 cells under hypoxia; format: cell-based; conditions: 5 μM, 0.2% oxygen 48 hours, low glucose DMEM; methylene blue; FIG. 11
Description: We also tested the protective activity of a chemical TACR1 inhibitor in HKC8 cells using the following protocol. Day 0: HKC8 cells were seeded in complete keratinocyte medium at a density of 2×10^4 cells per well on two 96-well plates. Day 1: Keratinocyte medium was removed from the plates and fresh DMEM containing low glucose and 5 μM TACR1 inhibitor (L-733,060) was added where indicated. Treated and untreated cells were present on the plates in triplicate. The two plates were incubated in the presence of the inhibitor at normal growth conditions for 1 hour, at which time one of the plates was transported to a chamber that contained 0.2% oxygen for 48 hours, while the other remained at normoxia for the same duration. Day 3: Following exposure to hypoxia, the cells were rescued and the plates were immediately fixed and stained with methylene blue to assess survival. Results were then graphed as the percent of stain of the corresponding cells incubated in normoxic conditions minus the background (non-specific dye absorption by empty wells).

HK-2 cells [2] = test: Combined inhibition of RhoB (shRNA) and TACR1 (L-733,060): HK-2 survival in hypoxia; format: cell-based; conditions: L-733,060 5 μM on HK2-RhoB cells (shRNA to RhoB) vs either one alone; 0.2% oxygen 48 hours; FIG. 9
Description: To obtain the data presented in FIG. 9, HK-2 cells were trasnduced with either a construct expressing an shRNA to RhoB (cell line “HK2-RhoB”) or the corresponding empty vector (cell line “HK2-vector”). The survival of cells in hypoxic condition with or without addition of TACR1 inhibitor was evaluated using the following protocol: Day 0: HK-2 cells were seeded on two 96-well plates, 3×10^4 cells/well. Day 1: Keratinocyte medium was removed from the plates and fresh DMEM containing low glucose. TACR1 inhibitor (L-733,060; 5 μM) was added to half of the wells of either HK2-RhoB or HK2-vector. One hour later one of the plates was transported to a chamber that contained 0.2% oxygen for 48 hours, while the other remained at normoxia for the same period of time. Day 3: The cells were rescued from hypoxia and the plates were immediate fixed and stained with methylene blue to assess survival. Results were then graphed as the percent of stain of the corresponding cells incubated in normoxic conditions minus the background (non-specific dye absorption by empty wells).

Row | Molecule | geometric mean of fold increase in cell number (HK-2 cells [1]) [fold] | other results
1 | 22 (TACTGAACACGATCAGCAG; expressed or natural sequence) [compound 22] | 9 | 
2 | 26 (TTCCAGTAGAAGTAGTACT; expressed or natural sequence) [compound 26] | 12 | 
3 | 27 (TTGGATCTGTAAAGACGCCAC; expressed or natural sequence) [compound 27] | 5 | 
4 | FC(F)(F)c1cc(CO[C@H]2CCCN[C@H]2c2ccccc2)cc(C(F)(F)F)c1 [L-733,060, (2S,3S)-3-{[3,5-bis(trifluoromethyl)benzyl]oxy}-2-phenylpiperidine] |  | signs of kidney damage (plasma creatinine, NGAL, osteopontin, urea) (kidneys): decreases the appearance of signs of kidney damage; survival of hRPTEC cells under hypoxia (hRPTEC cells): significantly increases survival; protection against the effects of hypoxia on HKC8 cells (HKC8 cells): strongly protective; protection from hypoxia, combined inhibition of RhoB and TACR1 (HK-2 cells [2]): better protection that inhibition of either one alone
5 | 12 (ATCTCTTTGGACTTGAAGC; expressed or natural sequence) [compound 12] | 9 | 
6 | 21 (TTACTGAACACGATCAGCAGG; expressed or natural sequence) [compound 21] | 22 | 
7 | 25 (TTCTCATAAATCTTGTTCG; expressed or natural sequence) [compound 25] | 15 | 
8 | 17 (AAACGCTAAAGATGAGTCC; expressed or natural sequence) [compound 17] | 7 | 
9 | 24 (TTCTTGTAAATAATGAGCG; expressed or natural sequence) [compound 24] | 5 | 
10 | 15 (ATGACATTGATCTGATCCA; expressed or natural sequence) [compound 15] | 23 | 
11 | 20 (TCTTCTAAGCACTGAAGAG; expressed or natural sequence) [compound 20] | 11 | 
12 | 13 (TGATGTCTGGTGTAGTAGG; expressed or natural sequence) [compound 13] | 10 | 
13 | 14 (ATCTCCTGAATATTTCAGCAG; expressed or natural sequence) [compound 14] | 13 | 
14 | 11 (TCTTGCCAAGGTTTATGGC; expressed or natural sequence) [compound 11] | 8 | 
15 | 18 (ATTGGTTTGATTTCCTCCC; expressed or natural sequence) [compound 18] | 18 | 
16 | 23 (ATAAATATCTGTTCCCAAG; expressed or natural sequence) [compound 23] | 15 | 
17 | 19 (AACATGTTCATAACCAGGTCG; expressed or natural sequence) [compound 19] | 26 | 
18 | 16 (TCTTCAACAGAATCCACTT; expressed or natural sequence) [compound 16] | 6 | 
